SMILES strings stand for the structures.

These results are taken from patent US5153318A, “3'-Azido nucleoside compound” (Burroughs Wellcome Co., priority 1989, dated 1992).

One test has as its system HIV-1 (strain 3B). The test is described as follows: Anti-HIV-1 activity, reversal of cytopathic effect in MT4 cells (propidium iodide dye uptake). Format: cell-based. The note with it: Human immunodeficiency virus 1, MT4, 120 h, 100XTCID50, five days, protection of 50% of the cells from cell killing. (In general: Damage to the host cells serves as the signal in cytopathic effect assays.)

In the next test the test system is human hepatitis B virus. Briefly: Anti-HBV activity in human HBV producer cell line of HepG2, 2.2.15. Format: cell-based. The note with it: HepG2 2.2.15 cells, ten days; criterion at least 100-fold reduction of Dane particles and similar decrease of intracellular replicative intermediates. How it is done:
ii) The human HBV producer cell line of HepG2, 2.2.15, described and characterized by Sells et al., PNAS 84:1005, 1987 and J. Virol. […] This cell line was utilized in vitro to identify compounds with anti-HBV activity.
To test compounds for antiviral activity, monolayer cultures were treated with compound. […], for ten days. Supernatant media containing extracellular virion DNA (Dane particles) were harvested on days three, six and ten, treated with proteinase K (1 mg/mL) and sodium dodecyl sulfate (1%), and incubated at 50° C. for one hour. DNA was extracted with equal volumes of phenol followed by chloroform and then precipitated by ammonium acetate and propanol. […] After precipitation by ammonium acetate and propanol, the intracellular DNA precipitate was dissolved, cut by restriction endonuclease, Hind III, applied to agarose gel and then treated as described by Southern to determine the quantity of replicative intermediate forms. The antiviral effect of the drug was determined by measuring at least a 100-fold reduction of the amount of Dane particles extruded into the culture medium and a similar decrease in the intracellular replicative intermediates.

Description for HIV-1 (strain 3B): i) Anti-HIV activity was determined by measuring the ability of the compound to reverse the cytopathic effect of HIV infection. This was determined by a quantitative assessment of cell growth monitored at the fifth day post infection by a propidium iodide dye uptake test. MT4 cells were incubated with 100XTCID50 of HIV-1 (strain 3B) or HIV-2 (Zagury strain) for one hour prior to addition of compound in six different concentrations varying from 2 to 200 μM. The cells were allowed to incubate for five days at 37° C. On day five, NP-40, a detergent, was added to a final concentration of 0.5% immediately prior to analysis. Cell number was determined using a method which measures the fluorescence of a dye (propidium iodide) which binds to DNA. Since the amount of DNA is directly proportional to cell number, this fluorescence assay is an indication of cell growth. While uninfected cells double in cell number several times during the five days duration of the assay. HIV-infected cells grow very little, if at all.

In general, IC50 refers to the point on the concentration scale where inhibition reaches its midpoint. In the case of `[N-]=[N+]=N[C@H]1C[C@H](n2cnc3c(OCc4ccccc4)nc(N)nc32)O[C@@H]1CO` [Example 6b, 2-Amino-9-(3-azido-2,3-dideoxy-β-D-erythro-pentofuranosyl)-6-benzyloxy-9H-purine], the 50% inhibitory concentration (IC50) in the test with HIV-1 (strain 3B) came out at 8.9 µM.
On to `CN(C)c1nc(N)nc2c1ncn2[C@H]1C[C@H](N=[N+]=[N-])[C@@H](CO)O1` [Example 7b, 2-Amino-9-(3-azido-2,3-dideoxy-β-D-erythro-pentofuranosyl)-6-dimethylamino-9H-purine], for which the “inhibition of human hepatitis B virus” value in the test on human hepatitis B virus is “strong inhibition”.
